Assay type in all cases: cell-based
The target of test [1] is T1, SARS-CoV-2 E protein (Severe acute respiratory syndrome coronavirus 2, UniProt P0DTC4).
For another test, the target named is SARS-CoV-2 3a protein (Severe acute respiratory syndrome coronavirus 2, UniProt P0DTC3).
The test system of another test is SARS-CoV-2. The following applies: for protection, effect on cell survival (FIG. 24 legend): individual 3a protein inhibitor at a concentration of 3 μM; for cell survival (in words): sole compound at 3, FIG. 24; for effectiveness of compounds on their own: sole compounds, protection of cells against viral death.
Test [2] has as its target T1, SARS-CoV-2 E protein. This is another data set of the same source.
For test [3], the target named is T1, SARS-CoV-2 E protein. This is another data set of the same source.
The mark [4] stands for this setting: 3000 molecules screened against E protein.
Setting [5] is: 3,000 molecules screened against 3a protein.

Like-named read-outs stand apart in the source and are kept apart here.

T1 sequence (P0DTC4 whole entry, looked up): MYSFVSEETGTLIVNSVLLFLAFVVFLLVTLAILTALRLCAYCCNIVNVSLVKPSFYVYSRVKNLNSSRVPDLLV
Sequence of SARS-CoV-2 3a protein (P0DTC3 whole entry, looked up): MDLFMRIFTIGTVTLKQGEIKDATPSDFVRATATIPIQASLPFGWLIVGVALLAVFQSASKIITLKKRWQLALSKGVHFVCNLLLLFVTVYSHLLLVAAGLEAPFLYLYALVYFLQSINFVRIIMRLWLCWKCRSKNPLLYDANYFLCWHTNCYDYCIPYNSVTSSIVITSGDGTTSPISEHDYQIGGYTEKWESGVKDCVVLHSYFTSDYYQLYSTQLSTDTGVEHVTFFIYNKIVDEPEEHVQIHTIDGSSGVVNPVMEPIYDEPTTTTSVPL

Turning to `Nc1ncn([C@@H]2O[C@H](CO)[C@@H](O)[C@H]2O)c(=O)n1` [Azacytidine, 4-Amino-1-β-D-ribofuranosyl-s-triazin-2(1H)-one], on SARS-CoV-2 E protein [1] (setting [4]), the “outcome of screen: SARS-CoV-2 E protein channel blocker” value is recorded as “can be used as SARS-CoV-2 E protein channel blocker”. Regarding `C[C@H]1O[C@H](OC2[C@@H](O)[C@@H](O)C(O)[C@H](O)[C@H]2O)[C@@H](N)C[C@@H]1N=C(N)C(=O)O` (stereo partly drawn) [Kasugamycin, 2-amino-2-[(2R,3 S,5 S,6R)-5-amino-2-methyl-6-[(2R,3 S,5S,6S)-2,3,4,5,6-pentahydroxycyclohexyl]oxyoxan-3-yl]iminoacetic acid], the “outcome of screen: SARS-CoV-2 E protein channel blocker” value on SARS-CoV-2 E protein [1] (setting [4]) is “can be used as SARS-CoV-2 E protein channel blocker”. Further, the “outcome of screen: SARS-CoV-2 3a protein inhibitor” value at SARS-CoV-2 3a protein (setting [5]) is recorded as “can be used as SARS-CoV-2 3a protein inhibitor”.

Regarding `Cc1ncc(NC(=O)c2ccc(CN3CCN(C)CC3)c(C(F)(F)F)c2)cc1Nc1nccc(-c2cccnc2)n1` [Flumatinib, 4-[(4-methylpiperazin-1-yl)methyl]-N-[6-methyl-5-[(4-pyridin-3-ylpyrimidin-2-yl)amino]pyridin-3-yl]-3-(trifluoromethyl)benzamide], at SARS-CoV-2 3a protein (setting [5]), the “outcome of screen: SARS-CoV-2 3a protein inhibitor” value was “can be used as SARS-CoV-2 3a protein inhibitor”. In the test on SARS-CoV-2, the “protection, effect on cell survival (FIG. 24 legend)” value is given as “near full protection”; the “cell survival (in words)” value is “near full survival”; the “effectiveness of compounds on their own” value is reported as “most effective”. Consider `O=c1[nH]c(=O)n(C2CC(O)C(CO)O2)cc1F` (stereo not shown) [Floxuridine, 5-Fluoro-1-[4-hydroxy-5-(hydroxymethyl)tetrahydrofuran-2-yl]-1H-pyrimidine-2,4-dione], for which the “outcome of screen: SARS-CoV-2 3a protein inhibitor” value on SARS-CoV-2 3a protein (setting [5]) was “can be used as SARS-CoV-2 3a protein inhibitor”. On to `Cc1ccc(S(=O)(=O)NC(=O)NN2CC3CCCC3C2)cc1` (stereo not shown) [Gliclazide, 1-(3-azabicyclo(3.3.0)oct-3-yl)-3-(p-tolylsulfonyl)urea], for which the “bacterial growth in negative assay” value at SARS-CoV-2 E protein [2] is on record as “enhance bacterial growth”. Besides, the “bacterial growth in positive assay” value on SARS-CoV-2 E protein [3] was “inhibited growth”. The “outcome of screen: SARS-CoV-2 E protein channel blocker” value at SARS-CoV-2 E protein [1] (setting [4]) was “can be used as SARS-CoV-2 E protein channel blocker”. As to `c1cc(CN2CCCNCCNCCCNCC2)ccc1CN1CCCNCCNCCCNCC1` [Plerixafor, 1-[[4-(1,4,8,11-tetrazacyclotetradec-1-ylmethyl)phenyl]methyl]-1,4,8,11-tetrazacyclotetradecane], the “outcome of screen: SARS-CoV-2 E protein channel blocker” value at SARS-CoV-2 E protein [1] is reported as “can be used as SARS-CoV-2 E protein channel blocker”. The “outcome of screen: SARS-CoV-2 3a protein inhibitor” value at SARS-CoV-2 3a protein is “can be used as SARS-CoV-2 3a protein inhibitor”.

As to `N=C(N)c1ccc(OCCCCCOc2ccc(C(=N)N)cc2)cc1` [Pentamidine, 4,4′-[pentane-1,5-diylbis(oxy)]dibenzenecarboximidamide], the “outcome of screen: SARS-CoV-2 3a protein inhibitor” value at SARS-CoV-2 3a protein (setting [5]) is recorded as “can be used as SARS-CoV-2 3a protein inhibitor”.

In the case of `C1CNCCNCCNCCN1` [Cyclen, 1,4,7,10-Tetraazacyclododecane], the “outcome of screen: SARS-CoV-2 E protein channel blocker” value on SARS-CoV-2 E protein [1] (setting [4]) is “can be used as SARS-CoV-2 E protein channel blocker”.

For `NCCCCN(Cc1nc2ccccc2[nH]1)[C@H]1CCCc2cccnc21` [Mavorixafor, N-(1H-benzimidazol-2-ylmethyl)-N-[(8S)-5,6,7,8-tetrahydroquinolin-8-yl]butane-1,4-diamine], the “outcome of screen: SARS-CoV-2 E protein channel blocker” value on SARS-CoV-2 E protein [1] (setting [4]) is on record as “can be used as SARS-CoV-2 E protein channel blocker”. For the compound Capreomycin, at SARS-CoV-2 3a protein (setting [5]), the “outcome of screen: SARS-CoV-2 3a protein inhibitor” value is recorded as “can be used as SARS-CoV-2 3a protein inhibitor”. Consider `CCO[C@@H](Cc1ccc(OCCn2c(C)ccc2-c2ccc(SC)cc2)cc1)C(=O)O` [Saroglitazar Magnesium, (αS)-α-Ethoxy-4-[2-[2-methyl-5-[4-(methylthio)phenyl]-1H-pyrrol-1-yl]ethoxy]benzenepropanoic Acid], for which, on SARS-CoV-2 E protein [1] (setting [4]), the “outcome of screen: SARS-CoV-2 E protein channel blocker” value is “can be used as SARS-CoV-2 E protein channel blocker”. As to `CCNCCS(=O)(=O)NC[C@@]1(c2ccccc2)SC(NC(=O)C(C)(C)C)=NN1C(=O)C(C)(C)C` [Litronesib, N-[(5R)-4-(2,2-dimethylpropanoyl)-5-[[2-(ethylamino)ethylsulfonylamino]methyl]-5-phenyl-1,3,4-thiadiazol-2-yl]-2,2-dimethylpropanamide], the “outcome of screen: SARS-CoV-2 3a protein inhibitor” value at SARS-CoV-2 3a protein (setting [5]) is on record as “can be used as SARS-CoV-2 3a protein inhibitor”. For `Cc1cc(C)c(NC(=O)CN(CC(=O)O)CC(=O)O)c(C)c1Br` [Mebrofenin, 2-[[2-(3-bromo-2,4,6-trimethylanilino)-2-oxoethyl]-(carboxymethyl)amino]acetic acid], at SARS-CoV-2 E protein [1] (setting [4]), the “outcome of screen: SARS-CoV-2 E protein channel blocker” value is given as “can be used as SARS-CoV-2 E protein channel blocker”.

On to `CCN(CC)CCN(Cc1ccc(-c2ccc(C(F)(F)F)cc2)cc1)C(=O)Cn1c(SCc2ccc(F)cc2)nc(=O)c2c1CCC2` [Darapladib, N-(2-Diethylaminoethyl)-2-[2-[(4-fluorophenyl)methylsulfanyl]-4-oxo-6,7-dihydro-5H-cyclopenta[d]pyrimidin-1-yl]-N-[[4-[4-(trifluoromethyl)phenyl]phenyl]methyl]acetamide], for which the “outcome of screen: SARS-CoV-2 3a protein inhibitor” value at SARS-CoV-2 3a protein (setting [5]) is “can be used as SARS-CoV-2 3a protein inhibitor”. For the same compound, in the test on SARS-CoV-2, the “protection, effect on cell survival (FIG. 24 legend)” value is “near full protection”; the “cell survival (in words)” value is reported as “full survival”; the “effectiveness of compounds on their own” value is recorded as “most effective”. On to `CC12CC3CC(C)(C1)CC(N)(C3)C2` [Memantine, 1-amino-3,5-dimethyladamantane], for which, on SARS-CoV-2 E protein [2], the “bacterial growth in negative assay” value is reported as “enhance bacterial growth”. Further, the “bacterial growth in positive assay” value at SARS-CoV-2 E protein [3] is “inhibited growth”. Besides, the “outcome of screen: SARS-CoV-2 E protein channel blocker” value on SARS-CoV-2 E protein [1] (setting [4]) was “can be used as SARS-CoV-2 E protein channel blocker”.

In the case of `CN[C@@H]1[C@H](O)[C@H](NC)[C@H]2O[C@@]3(O)C(=O)C[C@@H](C)O[C@H]3O[C@@H]2[C@H]1O` [Spectinomycin], at SARS-CoV-2 3a protein (setting [5]), the “outcome of screen: SARS-CoV-2 3a protein inhibitor” value is “can be used as SARS-CoV-2 3a protein inhibitor”.
